Experimental data: ChEMBL document CHEMBL2396590, “Inhibition of HIV-1 integrase dimerization and activity with crosslinked interfacial peptides” (Bioorg Med Chem, 2013)
Calls of active or inactive are those of the source. The rule behind the calls is not given here. Starred links: 1 amine or outer side, 2 acyl side, 3 side chain; linkers in the order of their positions; H or OH if unused. Non-standard residues stand in square brackets, D forms with d. Residues, ends and D or L forms follow the SMILES beside them. NH(CH2)9CO = O=C(CCCCCCCCCN[*:1])[*:2]; Aun = NCCCCCCCCCCC(=O)O; Ava = NCCCCC(=O)O

Experiments:
[1] = test system: Human immunodeficiency virus type 1 integrase (Human immunodeficiency virus 1), Q7ZJM1 [F185K,C280S]; assay: Inhibition of HIV1 integrase F185K/C280S double mutant dimerization expressed in Escherichia coli BL21 (DE3) at 110 uM after 1 hr by PAGE analysis
[2] = biological target: Human immunodeficiency virus type 1 integrase (Human immunodeficiency virus 1, UniProt Q7ZJM1, C280S/F185K); assay: Inhibition of HIV1 3'-processing activity of integrase F185K/C280S double mutant expressed in Escherichia coli BL21 (DE3)

| Compound | inhibition [1] | IC50 [2] [nM] |
| --- | --- | --- |
| CC[C@H](C)[C@H](NC(=O)[C@H](CC(=O)O)NC(=O)[C@@H](NC(=O)[C@H](C)NC(=O)[C@@H](NC(=O)[C@@H](NC(=O)[C@H](CC(=O)O)NC(=O)[C@@H](NC(=O)[C@@H](NC(=O)[C@H](CCCNC(=N)N)NC(=O)[C@H](CCC(=O)O)NC(=O)CNC(=O)[C@H](C)NC(=O)CCCCCCCCCNC(=O)[C@H](CCCNC(=N)N)NC(=O)[C@H](CCCCN)NC(=O)[C@H](Cc1ccccc1)NC(=O)[C@H](CC(N)=O)NC(=O)[C@H](Cc1cnc[nH]1)NC(=O)[C@@H](NC(=O)[C@H](Cc1ccccc1)NC(=O)[C@@H](NC(=O)[C@H](C)NC(=O)[C@H](CCSC)NC(=O)[C@H](CCC(N)=O)NC(=O)[C@@H](NC(=O)[C@H](C)NC(=O)[C@@H](NC(=O)[C@H](CCCCN)NC(=O)[C@H](CC(C)C)NC(=O)[C@@H](N)Cc1cnc[nH]1)[C@@H](C)O)C(C)C)C(C)C)[C@@H](C)CC)[C@@H](C)CC)C(C)C)[C@@H](C)CC)[C@@H](C)CC)[C@@H](C)O)C(=O)N[C@@H](CCC(N)=O)C(N)=O (H-HLKTAVQMAVFIHNFKR[NH(CH2)9CO]AGERIVDIIATDIQ-NH2) | Active | 760 |
| H-HLKTAVQMAVFIHNFKR-OH | – | 2000 |
| CC[C@H](C)[C@H](NC(=O)[C@H](CC(=O)O)NC(=O)[C@@H](NC(=O)[C@H](C)NC(=O)[C@@H](NC(=O)[C@@H](NC(=O)[C@H](CC(=O)O)NC(=O)[C@@H](NC(=O)[C@@H](NC(=O)[C@H](CCCNC(=N)N)NC(=O)[C@H](CCC(=O)O)NC(=O)CNC(=O)[C@H](C)NC(=O)CCCCCCCCCCNC(=O)[C@H](CCCNC(=N)N)NC(=O)[C@H](CCCCN)NC(=O)[C@H](Cc1ccccc1)NC(=O)[C@H](CC(N)=O)NC(=O)[C@H](Cc1cnc[nH]1)NC(=O)[C@@H](NC(=O)[C@H](Cc1ccccc1)NC(=O)[C@@H](NC(=O)[C@H](C)NC(=O)[C@H](CCSC)NC(=O)[C@H](CCC(N)=O)NC(=O)[C@@H](NC(=O)[C@H](C)NC(=O)[C@@H](NC(=O)[C@H](CCCCN)NC(=O)[C@H](CC(C)C)NC(=O)[C@@H](N)Cc1cnc[nH]1)[C@@H](C)O)C(C)C)C(C)C)[C@@H](C)CC)[C@@H](C)CC)C(C)C)[C@@H](C)CC)[C@@H](C)CC)[C@@H](C)O)C(=O)N[C@@H](CCC(N)=O)C(N)=O (H-HLKTAVQMAVFIHNFKR[Aun]AGERIVDIIATDIQ-NH2) | Active | 850 |
| CC[C@H](C)[C@H](NC(=O)[C@H](CC(=O)O)NC(=O)[C@@H](NC(=O)[C@H](C)NC(=O)[C@@H](NC(=O)[C@@H](NC(=O)[C@H](CC(=O)O)NC(=O)[C@@H](NC(=O)[C@@H](NC(=O)[C@H](CCCNC(=N)N)NC(=O)[C@H](CCC(=O)O)NC(=O)CNC(=O)[C@H](C)NC(=O)CCCCNC(=O)[C@H](CCCNC(=N)N)NC(=O)[C@H](CCCCN)NC(=O)[C@H](Cc1ccccc1)NC(=O)[C@H](CC(N)=O)NC(=O)[C@H](Cc1cnc[nH]1)NC(=O)[C@@H](NC(=O)[C@H](Cc1ccccc1)NC(=O)[C@@H](NC(=O)[C@H](C)NC(=O)[C@H](CCSC)NC(=O)[C@H](CCC(N)=O)NC(=O)[C@@H](NC(=O)[C@H](C)NC(=O)[C@@H](NC(=O)[C@H](CCCCN)NC(=O)[C@H](CC(C)C)NC(=O)[C@@H](N)Cc1cnc[nH]1)[C@@H](C)O)C(C)C)C(C)C)[C@@H](C)CC)[C@@H](C)CC)C(C)C)[C@@H](C)CC)[C@@H](C)CC)[C@@H](C)O)C(=O)N[C@@H](CCC(N)=O)C(N)=O (H-HLKTAVQMAVFIHNFKR[Ava]AGERIVDIIATDIQ-NH2) | – | 3750 |
| H-AGERIVDIIATDIQ-NH2 | – | 3000 |
